Experimental data from patent US20150064305A1, “USE OF PARA NITRO AMINO DERIVATIVES IN FEED FOR REDUCING METH-ANE EMISSION IN RUMINANTS” (DSM IP ASSETS B.V., priority 2012, published 2015).

System: methanogenesis in rumen liquor
Assay: In vitro test for methane production (modified Hohenheim Forage value Test, HFT)
Conditions: reduction in methane produced compared to control, average of two experiments
Procedure: A modified version of the “Hohenheim Forage value Test (HFT)” was used for testing the effect of specific compounds on the rumen functions mimicked by this in-vitro system.
Feed is given into a syringe with a composition of rumen liquor and an appropriate mixture of buffers. The solution is incubated at 39° C. After 8 hours the quantity (and composition) of methane produced is measured and put into a formula for conversion.
The feed stuff is sieved to 1 mm—usually TMR (44% concentrate, 6% hay, 37% maize silage and 13% grass silage)—and weighed exactly into 64 syringes. 4 of these syringes are the substrate controls, which display the gas production without the effect of the tested compounds. 4 other syringes are positive control, in which bromoethane sulfonate has been added to 0.1 mM. When needed, 4 syringes contain a carrier control (if the test compounds need a carrier). The remaining syringes contain the test substances, by groups of 4 syringes.
The components are mixed in a Woulff bottle in following order: • 711 ml water • 0.18 ml trace element solution • 355.5 ml buffer solution • 355.5 ml mass element solution
The completed solution is warmed up to 39° C. followed by the addition of 1.83 ml sodium salt solution and the addition of reduction solution at 36° C. The rumen liquor is added, when the indicator turns colourless.
750 ml of rumen liquor are added to approximately 1,400 ml of medium solution under continued agitation and CO2-gassing.
The diluted rumen fluid (24 ml) is added to the glass syringe. The syringes are then incubated for 8 hours at 39° C. under gentle agitation. After 8 hours, the volume of gas produced is measured, and the percentage of methane in the gas phase is determined by gas chromatography.
The food fermented was artificial TMR (44% concentrate, 6% hay, 37% maize silage and 13% grass silage). The compounds produced as described in examples 3 to 11 were added to the fermentation syringes to a concentration of 1 to 0.1% of dry matter (DM).
The same in vitro assay as described in Example 1 has been performed with a series of molecules, wherein either the amine group has been replaced or, the amine group is not in para position.

[1] = comparative compounds (Table 3), 1% DM
[2] = 0.1% DM, artificial TMR feed, 8 hours at 39° C.
[3] = 0.25% DM, artificial TMR feed, 8 hours at 39° C.
[4] = 0.5% DM, artificial TMR feed, 8 hours at 39° C.
[5] = 1% DM, artificial TMR feed, 8 hours at 39° C.

| Compound | effect on methanogenesis (%) [1] [%] | effect on methanogenesis (%) [2] [%] | effect on methanogenesis (%) [3] [%] | effect on methanogenesis (%) [4] [%] | effect on methanogenesis (%) [5] [%] |
| --- | --- | --- | --- | --- | --- |
| Cc1ccc([N+](=O)[O-])cc1 [A, reference compound] | 8 | – | – | – | – |
| O=C(O)c1ccc(C(=O)Nc2ccc([N+](=O)[O-])cc2)cc1 [C, reference compound] | 3 | – | – | – | – |
| Nc1ccc([N+](=O)[O-])cc1 [Compound 1, (4-nitro-phenyl)-amine] | – | 15 | 43 | 88 | 100 |
| CNc1ccc([N+](=O)[O-])cc1 [Compound 2, Methyl-(4-nitro-phenyl)-amine] | – | 3 | – | – | 96 |
| CCNc1ccc([N+](=O)[O-])cc1 [Compound 3, Ethyl-(4-nitro-phenyl)-amine] | – | 0 | – | – | 97 |
| CN(C)c1ccc([N+](=O)[O-])cc1 [Compound 4, Dimethyl-(4-nitro-phenyl)-amine] | – | 0 | – | – | 94 |
| CCCNc1ccc([N+](=O)[O-])cc1 [Compound 5, (4-Nitro-phenyl)-propyl-amine] | – | 5 | 20 | 60 | 100 |
| CC(C)Nc1ccc([N+](=O)[O-])cc1 [Compound 6, Isopropyl-(4-nitro-phenyl)-amine] | – | 2 | – | – | 99 |
| O=[N+]([O-])c1ccc(NCCO)cc1 [Compound 7, 2-(4-Nitro-phenylamino)-ethanol] | – | 6 | – | – | 100 |
| O=[N+]([O-])c1ccc(NCCCO)cc1 [Compound 8, 3-(4-Nitro-phenylamino)-propan-1-ol] | – | 1 | – | – | 100 |
| O=[N+]([O-])c1ccc(NCc2ccccn2)cc1 [Compound 9, 4-Nitro-N-(Pyridin-2-ylmethyl)aniline] | – | 3 | – | – | 95 |
| O=C(O)c1ccc(CNc2ccc([N+](=O)[O-])cc2)cc1 [Compound 10, 4-((4-Nitro-phenylamino)-methyl)-benzoic acid] | – | – | 3 | 21 | 97 |
| O=C(O)c1cccc(CNc2ccc([N+](=O)[O-])cc2)c1 [Compound 11, 3-((4-Nitro-phenylamino)-methyl)-benzoic acid] | – | 1 | – | – | 88 |
| Nc1cccc([N+](=O)[O-])c1 [Compound B, 3-Nitro-phenylamine, reference compound] | 7 | – | – | – | – |
| O=C(O)c1ccc(COc2ccc([N+](=O)[O-])cc2)cc1 [Compound D, 4-(4-Nitro-phenoxymethyl)-benzoic acid, reference compound] | 6 | – | – | – | – |
| O=[N+]([O-])c1ccc(N2CCOCC2)cc1 [Compound F, 4-(4-Nitrophenyl)morpholine, reference compound] | 8 | – | – | – | – |
